According to patent publication US20080131366A1, “Folate Receptor Gene Modulation For Cancer Diagnosis And Therapy” (priority 2003, published 2008):

Experiments:
Format in all cases: cell-based
FR-α/SV40 (GC)6 promoter = experiment: FR-α/SV40 (GC)6 chimeric promoter-luciferase in HeLa cells with ER; conditions: in the presence of ER
Method: FIG. 6C is a graph showing HeLa cells (10^6) which were transfected with FR-α promoter-luciferase (FR-α-Luc) (400 ng) [Seq. ID No. 6], FR-1-Luc in which the G/C-rich region (−47 nt to −18 nt) [Seq. ID No. 7] of the P4 promoter was replaced by the G/C-rich region in the SV40 early promoter (FR-α/SV40 (GC)6) (400 ng), or with FR-α-Luc[Seq. ID No. 6] in which the initiator region (−28 nt to +33 nt) [Seq. ID No. 8] was replaced by the TATA box-containing initiator region of the SV40 early promoter (FR-α/SV40-lnr) (400 ng). ER expression plasmid (25 ng) or the plasmid vector (25 ng) was co-transfected as indicated. The transfected cells were grown in the presence of E2 (1 nM) and either in the absence or in the presence of ICI 182, 780 for 48 h before harvesting them for luciferase assays.
DNA Constructs: Construct design used either natural restriction sites or restriction sites created by the polymerase chain reaction (PCR) using Vent DNA polymerase (New England Biolabs) and custom oligonucleotides from Gibco BRL. In cases where a natural restriction site could not be found for use, complementary primers containing an appropriate restriction site or point mutation were used in conjunction with upstream and downstream primers containing restriction sites. Alternatively, mutagenic oligonucleotides were used as end primers to amplify the desired fragment. […]

FR-α promoter [1] = experiment: FR-α promoter-luciferase reporter in IGROV-1 cells co-transfected with ER; conditions: IGROV-1, ER co-transfected, 1 nM E2, pharmacologic concentrations of antiestrogen
Method: (§1) (FIG. 1A) HeLa and IGROV-1 cells (10^6) were co-transfected with the FR-α promoter-luciferase construct (400 ng) and either an ER expression plasmid (25 ng) or with the plasmid vector alone (25 ng) in the presence of 1 nM E2. Antiestrogens were introduced at the time of transfection. […] (FIG. 1B) The FR-α promoter-luciferase construct (400 ng) was transfected into BG-1 cells (10^6) in the absence or in the presence of E2 (1 nM) and antiestrogens were introduced at the time of transfection. (FIG. 1C) HeLa cells (10^6) were transfected with the thymidine kinase (TK)-promoter-luciferase (200 ng) or Rous Sarcoma Virus (RSV)-promoter-luciferase (200 ng) constructs and were co-transfected with either ER plasmid (25 ng) or with the plasmid vector (25 ng). Antiestrogens were introduced at the time of transfection.
(§2) Cell Culture and Transfection: HeLa I-1 cells were kindly provided by Dr. S. T. Rosen. BG-1 cells were provided by Dr. Randolf Ruch. […] Uniformity of transfection was routinely monitored through cotransfections with the β-galactosidase expression plasmid, pSV-β-gal (Promega). β-galactosidase activity was measured colorimetrically using the assay system available from Promega. […]

FR-α = experiment: Induction of endogenous FR-α in ER+/FRα-negative cells; conditions: ER+/FRα-negative cells including BG-1; results not shown
Text: It appears that ER will only modulate the endogenous FR-α gene in cells in which the gene is transcriptionally active.

FR-α promoter [2] = experiment: FR-α promoter-luciferase reporter in BG-1 cells (endogenous ER); conditions: BG-1, endogenous ER
Method: as §1, §2

FR-α promoter [3] = experiment: FR-α promoter-luciferase reporter in HeLa cells co-transfected with ER
Method: as §1
FIGS. 2A and 2B are graphs showing an estrogen and antiestrogen dose response of a control ERE-driven promoter and the FR-α promoter in HeLa cells. The Y-axis in FIG. 2A indicates promoter activation, whereas the Y-axis in FIG. 2B indicates promoter repression. The cells (10^6) were transfected with either ERE2E1b-luciferase (100 ng) (FIG. 2A) or FR-α promoter-luciferase (100 ng) (FIG. 2B) and co-transfected with the ER expression plasmid (50 ng) where indicated. Cells that were not co-transfected with the ER-plasmid were co-transfected instead with the plasmid vector alone (50 ng).
FIGS. 3A and 3B are graphs showing a time course of response of the control ERE2E1b-luciferase (FIG. 3A) and FR-α promoter luciferase (FIG. 3B) to antiestrogens in HeLa cells. The cells (10^6) were transfected with the indicated promoter-luciferase construct (100 ng) and co-transfected with ER expression plasmid (50 ng) in the presence of E2 (1 nM).
In one set of experiments, the antiestrogens were removed after a 6 h treatment.
Cell Culture and Transfection: HeLa I-1 cells were kindly provided by Dr. S. T. Rosen. BG-1 cells were provided by Dr. Randolf Ruch. HeLa (American Type Tissue Collection) and HeLa I-1 cells were routinely cultured in phenol red-free MEM supplemented with fetal bovine serum (FBS) (10%), penicillin (100 units/mL), streptomycin ([…]), and L-glutamine (2 mM). BG-1 and IGROV1 (American Type Tissue Collection) cells were routinely cultured in DMEM and supplemented as above. Treated or transfected cells were grown in phenol-red free media supplemented with charcoal-stripped FBS (5% v/v), penicillin (100 units/mL), streptomycin ([…]), L-glutamine (2 mM), insulin (2 μg/mL), and transferrin (40 μg/mL) unless otherwise noted. In addition, treated HeLa I-1 cells were grown in culture with 50 μg/mL G418. […] Uniformity of transfection was routinely monitored through cotransfections with the β-galactosidase expression plasmid, pSV-β-gal (Promega). β-galactosidase activity was measured colorimetrically using the assay system available from Promega.
Luciferase Assay: Forty-eight hours after transfection, the cells were washed once with PBS (10 mM sodium phosphate, pH 7.5, 150 mM NaCl) and harvested in 400 μL of reporter lysis buffer provided with the luciferase assay system (Promega). The samples were centrifuged at 12,000 g for 2 min at room temperature. The supernatant was assayed for luciferase activity in a luminometer (Lumat LB9501, Berthold) using the luciferase substrate from Promega.

FR-α promoter [4] = experiment: FR-α promoter-luciferase in HeLa cells transfected with ERβ
Method: FIG. 8 is graph showing an effect of ERα vs. […] on FR-α promoter activity. HeLa cells (10^6) were transfected with the FR-α promoter-luciferase construct (200 ng) and co-transfected individually or in combination with expression plasmids (25 ng) for ERα, […] or with the plasmid vector. The cells were treated from the time of transfection with E2 (1 nm) and either without or with ICI 182, 780.
Effect of ERβ on FR-α Promoter activity: Since ER+ gynecological tumors are known to frequently co-express ERα and ERβ, the inventor herein tested whether ERβ may modulate FR-α similar to ERα or may otherwise counteract the effect of ERα.

C[C@]12CC[C@@H]3c4ccc(O)cc4C[C@@H](CCCCCCCCC[S+]([O-])CCCC(F)(F)C(F)(F)F)[C@H]3[C@@H]1CC[C@@H]2O (stereo partly drawn) [ICI 182,780]
chimeric promoter activity (FR-α/SV40 (GC)6 promoter): this activation was counteracted | FR-α promoter activity after repression by ER (FR-α promoter [1]): either partially or completely restored to the uninhibited values | induction of endogenous FR-α expression (FR-α): In no case did the inventor observe induction | FR-α promoter activity (FR-α promoter [2]): increased the promoter activity | duration of derepression after withdrawing the compound (FR-α promoter [3]; 6 h treatment): at least 18 h | derepression of FR-α promoter after 6 h treatment and withdrawal (FR-α promoter [3]; 6 h treatment, then compound withdrawn): full derepression | effect on FR-α promoter (ligand dose response) (FR-α promoter [3]; HeLa, ER co-transfected): the repression was counteracted | FR-α promoter activity after repression by ER (FR-α promoter [3]; HeLa, ER co-transfected, 1 nM E2, pharmacologic concentrations of antiestrogen): either partially or completely restored to the uninhibited values | reporter activity at the end of 48 h post-transfection (FR-α promoter [3]; antiestrogen introduced 24 h after co-transfection): a doubling of the reporter activity | onset of activation of FR-α promoter (FR-α promoter [3]; antiestrogen introduced 24 h after transfection): began within hours and progressively increased | FR-α promoter activity in the absence of ER (FR-α promoter [3]; no ER co-transfected, HeLa and IGROV-1, results not shown): did not alter FR-α promoter activity | repression of the FR-α promoter by ERβ (FR-α promoter [4]): reversed
